Test results taken from patent US10344049B2, “Substituted steroids for the treatment of cancer” (AQUAVAN TECHNOLOGY CO., LTD., priority 2017, dated 2019).
Where two headings read alike, the source gives them in different places.

How the values were obtained:
Format in all cases: cell-based
[1] = tested on: African green monkey kidney cells Vero; test: Cell viability test (Resazurin), Vero cells
Procedure: (§1) Cell viability was determined with Resazurin (at a final concentration of 25 μg/mL).

[2] = tested on: human breast cancer cells MDA-MB-231; test: Cell viability test (Resazurin), MDA-MB-231 cells; set-up: evaluation of ability to inhibit cell growth activity (IC50): scale not given here
Procedure: as §1

[3] = tested on: human Glioblastoma cells U87-MG; test: Cell viability test (Resazurin), U87-MG cells; set-up: evaluation of ability to inhibit cell growth activity (IC50): scale not given here; details: for evaluation of ability to inhibit cell growth activity (IC50): grade of the IC50 of Table 2
Procedure: as §1

[4] = tested on: human breast cancer cells MDA-MB-468; test: Cell viability test (Resazurin), MDA-MB-468 cells
Procedure: as §1

[5] = tested on: human liver cancer cells Mahlavu; test: Cell viability test (Resazurin), Mahlavu cells; details: for evaluation of ability to inhibit cell growth activity (IC50): grade of the IC50 of Table 2
Procedure: as §1

[6] = tested on: human lung cancer cells A549; test: Cell viability test (Resazurin), A549 cells; set-up: evaluation of ability to inhibit cell growth activity (IC50): scale not given here
Procedure: as §1

[7] = tested on: human colorectal cancer cells SW-480; test: Cell viability test (Resazurin), SW480 cells; set-up: evaluation of ability to inhibit cell growth activity (IC50): scale not given here
Procedure: as §1

[8] = tested on: human leukemia cells U937; test: Cell viability test (Resazurin), U937 cells
Procedure: as §1

[9] = Chlorocebus sabaeus, Vero, 48 h, 0.1% FCS, Resazurin, read-out: inhibitory concentrations of cell growth activity IC50
[10] = Chlorocebus sabaeus, Vero, grade of the IC50 of Table 2, read-out: evaluation of ability to inhibit cell growth activity (IC50)
[11] = Homo sapiens, MDA-MB-231, 48 h, MDA-MB-231 cells, 48 hours, 0.1% FCS, Resazurin, read-out: inhibitory concentrations of cell growth activity IC50
[12] = Homo sapiens, MDA-MB-231, MDA-MB-231 cells, grade of the IC50 of Table 2, read-out: evaluation of ability to inhibit cell growth activity (IC50)
[13] = MDA-MB-231 cells, grade of the IC50 of Table 2
[14] = Homo sapiens, U-87 MG, 48 h, 0.1% FCS, Resazurin, read-out: inhibitory concentrations of cell growth activity IC50
[15] = Homo sapiens, U-87 MG, grade of the IC50 of Table 2, read-out: evaluation of ability to inhibit cell growth activity (IC50)
[16] = Homo sapiens, MDA-MB-468, 48 h, MDA-MB-468 cells, 48 hours, 0.1% FCS, Resazurin, read-out: inhibitory concentrations of cell growth activity IC50
[17] = Homo sapiens, MDA-MB-468, MDA-MB-468 cells, grade of the IC50 of Table 2, read-out: evaluation of ability to inhibit cell growth activity (IC50)
[18] = Homo sapiens, Mahlavu, 48 h, 0.1% FCS, Resazurin, read-out: inhibitory concentrations of cell growth activity IC50
[19] = Homo sapiens, Mahlavu, grade of the IC50 of Table 2, read-out: evaluation of ability to inhibit cell growth activity (IC50)
[20] = A549 cells, grade of the IC50 of Table 2
[21] = Homo sapiens, A549, 48 h, A549 cells, 48 hours, 0.1% FCS, Resazurin, read-out: inhibitory concentrations of cell growth activity IC50
[22] = Homo sapiens, A549, A549 cells, grade of the IC50 of Table 2, read-out: evaluation of ability to inhibit cell growth activity (IC50)
[23] = Homo sapiens, SW480, 48 h, SW480 cells, 48 hours, 0.1% FCS, Resazurin, read-out: inhibitory concentrations of cell growth activity IC50
[24] = Homo sapiens, SW480, SW480 cells, grade of the IC50 of Table 2, read-out: evaluation of ability to inhibit cell growth activity (IC50)
[25] = Homo sapiens, U-937, 48 h, U937 cells, 48 hours, 0.1% FCS, Resazurin, read-out: inhibitory concentrations of cell growth activity IC50
[26] = Homo sapiens, U-937, U937 cells, grade of the IC50 of Table 2, read-out: evaluation of ability to inhibit cell growth activity (IC50)
[27] = 48 hours, 0.1% FCS, Resazurin, read-out: inhibitory concentrations of cell growth activity IC50
[28] = MDA-MB-231 cells, 48 hours, 0.1% FCS, Resazurin, read-out: inhibitory concentrations of cell growth activity IC50
[29] = MDA-MB-231 cells, grade of the IC50 of Table 2, read-out: evaluation of ability to inhibit cell growth activity (IC50)
[30] = grade of the IC50 of Table 2, read-out: evaluation of ability to inhibit cell growth activity (IC50)
[31] = MDA-MB-468 cells, 48 hours, 0.1% FCS, Resazurin, read-out: inhibitory concentrations of cell growth activity IC50
[32] = MDA-MB-468 cells, grade of the IC50 of Table 2, read-out: evaluation of ability to inhibit cell growth activity (IC50)
[33] = A549 cells, 48 hours, 0.1% FCS, Resazurin, read-out: inhibitory concentrations of cell growth activity IC50
[34] = SW480 cells, grade of the IC50 of Table 2, read-out: evaluation of ability to inhibit cell growth activity (IC50)
[35] = U937 cells, 48 hours, 0.1% FCS, Resazurin, read-out: inhibitory concentrations of cell growth activity IC50
[36] = U937 cells, grade of the IC50 of Table 2
[37] = SW480 cells, grade of the IC50 of Table 2
[38] = U937 cells, grade of the IC50 of Table 2, read-out: evaluation of ability to inhibit cell growth activity (IC50)

SMILES | IC50 [1, 9] [µM] | IC50 [1, 10] [µM] | IC50 [2, 11] [µM] | IC50 [2, 12] [µM] | IC50 [3, 14] [µM] | IC50 [3, 15] [µM] | evaluation of ability to inhibit cell growth activity (IC50) [3] | IC50 [4, 16] [µM] | IC50 [4, 17] [µM] | IC50 [5, 18] [µM] | IC50 [5, 19] [µM] | IC50 [6, 21] [µM] | IC50 [6, 22] [µM] | IC50 [7, 23] [µM] | IC50 [7, 24] [µM] | IC50 [8, 25] [µM] | IC50 [8, 26] [µM] | IC50 [4, 31] [µM] | IC50 [4, 32] [µM] | IC50 [8, 35] [µM] | also measured
CC(=O)O[C@@H](C=C(C)C)C[C@@H](C)[C@H]1CC[C@@]2(C)[C@@H]3[C@@H](O)C=C4[C@@H](CC[C@H](O)C4(C)C)[C@]3(C=O)CC[C@]12C [Compound 10] | 19.2 | 16 to 64 | 10.7 | 8 to 16 | 10.7 | 8 to 16 | ◯ | 20.3 | 16 to 64 | 19.4 | 16 to 64 | 9.81 | 8 to 16 | 17.9 | 16 to 64 | 5.92 | < 8 | – | – | – | evaluation of ability to inhibit cell growth activity (IC50) [2, 13]: ◯; evaluation of ability to inhibit cell growth activity (IC50) [6, 20]: ◯
COC1O[C@]23C=C[C@@H]4[C@@]1(CC[C@]1(C)[C@@H]([C@H](C)C/C=C/C(C)(C)O)CC[C@@]41C)[C@@H]2CC[C@H](O)C3(C)C (some centres unmarked) [Compound 19] | – | 16 to 64 | – | – | – | – | – | – | – | 20.7 | 16 to 64 | – | 16 to 64 | 16.6 | – | – | 8 to 16 | 24.4 | 16 to 64 | 11.9 | IC50 [1, 27]: 36.1 µM; IC50 [2, 28]: 22.6 µM; IC50 [2, 29]: 16 to 64 µM; IC50 [3, 27]: 25 µM; IC50 [3, 30]: 16 to 64 µM; IC50 [6, 33]: 45.6 µM; IC50 [7, 34]: 16 to 64 µM; evaluation of ability to inhibit cell growth activity (IC50) [8, 36]: ◯
CC(=O)O[C@H]1C=C2[C@@H](CC[C@H](OC(C)=O)C2(C)C)[C@]2(C=O)CC[C@]3(C)[C@@H]([C@H](C)C/C=C/C(C)(C)O)CC[C@@]3(C)[C@H]12 [Compound 4] | 35.3 | 16 to 64 | 12.1 | 8 to 16 | 14.4 | 8 to 16 | ◯ | 18.6 | 16 to 64 | 29.4 | 16 to 64 | 12.9 | 8 to 16 | 13 | 8 to 16 | 8.08 | 8 to 16 | – | – | – | evaluation of ability to inhibit cell growth activity (IC50) [2, 13]: ◯; evaluation of ability to inhibit cell growth activity (IC50) [6, 20]: ◯; evaluation of ability to inhibit cell growth activity (IC50) [7, 37]: ◯; evaluation of ability to inhibit cell growth activity (IC50) [8, 36]: ◯
CC(C)=C[C@H](O)C[C@@H](C)[C@H]1CC[C@@]2(C)[C@@H]3[C@@H](O)C=C4[C@@H](CC[C@H](O)C4(C)C)[C@]3(C=O)CC[C@]12C [Compound 2] | 12.8 | – | 4.44 | < 8 | 7.52 | < 8 | – | 7.25 | < 8 | 11.3 | 8 to 16 | 4.16 | < 8 | 13.1 | 8 to 16 | 0.05 | < 8 | – | – | – | evaluation of ability to inhibit cell growth activity (IC50) ([1]; grade of the IC50 of Table 2): ◯; evaluation of ability to inhibit cell growth activity (IC50) [5]: ◯; evaluation of ability to inhibit cell growth activity (IC50) [7, 37]: ◯
CC(C)=C[C@@H](C[C@@H](C)[C@H]1CC[C@@]2(C)[C@@H]3[C@@H](O)C=C4[C@@H](CC[C@H](O)C4(C)C)[C@]3(C=O)CC[C@]12C)O[C@@H]1O[C@H](CO)[C@@H](O)[C@H](O)[C@H]1O [Compound 12] | – | – | – | – | – | – | – | – | – | – | – | – | – | – | – | – | – | 56.5 | 16 to 64 | 58.6 | IC50 [1, 27]: 124 µM; IC50 [1, 30]: 64 to 256 µM; IC50 [2, 28]: 41.7 µM; IC50 [2, 29]: 16 to 64 µM; IC50 [3, 27]: 49 µM; IC50 [3, 30]: 16 to 64 µM; IC50 [5, 27]: 70.3 µM; IC50 [5, 30]: 64 to 256 µM; IC50 [6, 33]: 100 µM; IC50 ([6]; A549 cells, grade of the IC50 of Table 2, read-out: evaluation of ability to inhibit cell growth activity (IC50)): 64 to 256 µM; IC50 ([7]; SW480 cells, 48 hours, 0.1% FCS, Resazurin, read-out: inhibitory concentrations of cell growth activity IC50): 98.6 µM; IC50 [7, 34]: 64 to 256 µM; IC50 [8, 38]: 16 to 64 µM
CC(=O)O[C@H]1C=C2[C@@H](CC[C@H](O)C2(C)C)[C@]2(C=O)CC[C@]3(C)[C@@H]([C@H](C)C/C=C/C(C)(C)O)CC[C@@]3(C)[C@H]12 [Compound 9] | 25.9 | 16 to 64 | 18.3 | 16 to 64 | 15.6 | 8 to 16 | ◯ | 26.8 | 16 to 64 | 5.07 | < 8 | 24.4 | 16 to 64 | 31.8 | 16 to 64 | 11.2 | 8 to 16 | – | – | – | evaluation of ability to inhibit cell growth activity (IC50) [8, 36]: ◯
CC(=O)O[C@H]1C=C2[C@@H](CC[C@H](O)C2(C)C)[C@]2(C=O)CC[C@]3(C)[C@@H]([C@H](C)C[C@H](C=C(C)C)OC(C)=O)CC[C@@]3(C)[C@H]12 [Compound 7] | 23.2 | 16 to 64 | 6 | < 8 | 8.51 | 8 to 16 | ◯ | 13.9 | 8 to 16 | 11.9 | 8 to 16 | 6.26 | < 8 | 13.5 | 8 to 16 | 5.52 | < 8 | – | – | – | evaluation of ability to inhibit cell growth activity (IC50) ([4]; MDA-MB-468 cells, grade of the IC50 of Table 2): ◯; evaluation of ability to inhibit cell growth activity (IC50) [5]: ◯; evaluation of ability to inhibit cell growth activity (IC50) [7, 37]: ◯
CO[C@@H]1O[C@]23C=C[C@@H]4[C@@]1(CC[C@]1(C)[C@@H]([C@H](C)C/C=C/C(C)(C)OC)CC[C@@]41C)[C@@H]2CC[C@H](O)C3(C)C [Compound 15] | > 256 | > 256 | > 256 | > 256 | > 256 | > 256 | – | – | – | > 256 | > 256 | > 256 | > 256 | > 256 | > 256 | – | < 8 | > 256 | > 256 | 4.28 | –
COC1O[C@]23C=C[C@@H]4[C@@]1(CC[C@]1(C)[C@@H]([C@H](C)C[C@H](C=C(C)C)OC)CC[C@@]41C)[C@@H]2CC[C@H](O)C3(C)C (some centres unmarked) [Compound 16] | > 256 | > 256 | > 256 | > 256 | > 256 | > 256 | – | > 256 | > 256 | > 256 | > 256 | > 256 | > 256 | > 256 | > 256 | – | – | – | – | 97.9 | IC50 [8, 38]: 64 to 256 µM
